Source: patent US20250082781A1, “METHODS OF LOWERING BLOOD GLUCOSE AND TREATING TYPE 2 DIABETES BY ACTIVATION OF PDE4D3” (Salk Institute for Biological Studies, priority 2021, published 2025)

Tests used:
[1] = tested on: hepatic glucose production; test: Pyruvate tolerance and glycerol tolerance tests; assay type: in vivo, mouse
Method: Pyruvate tolerance and glycerol tolerance tests were performed in ob ob and DIO mice after overnight fasting at 1.5 g kg^−1 dose using sodium pyruvate (0.2 g/ml) or 20% glycerol solution in PBS. Insulin tolerance test and glucose tolerance test were performed in ob ob mice after 8 h fasting. 2 U kg^−1 insulin (Humulin R) and 0.5 g kg^−1 glucose were used respectively. Blood glucose from tail bleeding was monitored by a OneTouch glucometer.

[2] = tested on: endogenous glucose production; test: Hyperinsulinemic clamp in ob/ob mice; assay type: in vivo, mouse; details: FGF1 0.5 mg/kg every other day for a week
Method: Before the test, mice were equipped with a permanent catheter in the right atrium via the jugular vein and were allowed to recover over a period of at least 3 days. After the recovery period, the mice were placed in experimental cages. All infusion experiments were performed in conscious, unrestrained mice as described previously (van Dijk et al., 2003). During the experiment, blood glucose levels were determined every 15 minutes using a Lifescan EuroFlash glucose meter. For GC-MS analysis of [U-^13C] glucose, bloodspots on filter paper were collected from the tail vein every 30 minutes.
Ob/ob mice were treated for 1 week with rFGF1 (0.5 mg kg^−1 every other day for one week). Steady state glucose fluxes were determined for basal and hyperinsulinemic-euglycemic clamp conditions. During the first period, mice were infused with a solution containing a tracer of [U-13C] glucose (2.5 mg/ml Cambridge Isotope Laboratories, Andover, MA) at an infusion rate of 0.54 ml/h. With respect to the final period, blood glucose levels were clamped at 20 mM. For this, the mice were infused at a constant rate of 0.135 ml/h with a mixture of insulin (44 mU/ml, Actrapid, Novo Nordisk, Bagsvaerd, Denmark), somatostatin (20 μg/ml, UCB Breda, the Netherlands), 1% BSA, and glucose (200 mg/ml from which 3% [U-^13C] glucose). Additionally, a second (variable) infusion was used containing glucose (200 mg/ml from which 3% [U-^13C] glucose) to adjust blood glucose levels.

[3] = tested on: mouse SVF-derived adipocytes; test: In vitro lipolysis assay (FFA release), mouse SVF-derived adipocytes; assay type: cell-based
Method: Isolation of adipose stromal fraction (SVF) was performed as published previously with slight modifications (Bapat et al., 2015). Inguinal adipose (iWAT) tissues were used for isolation of SVF due their ability to differentiate to mature adipocytes. Briefly, adipose tissues were dissected, washed in cold PBS and cut into small pieces in digestion buffer (100 mM HEPES, 120 mM NaCl, 50 mM KCl, 1 mM CaCl2), 1.5% fatty acids free BSA, 1 mg/ml collagenase I). Samples were dissociated in 37° C. water bath with shaking for 30-60 min with occasional monitoring to prevent over digestion. Tissue debris were filtered by 100 μm cell strainer and SVF was collected by centrifugation at 500 g for 5 minutes. Cell pellet was washed once by PBS and filtered with 40 μm cell strainer. Red blood cells were lysed with Red blood cell lysis buffer (BioLegend) according to manufacturer's instructions. The remaining cells were re-suspended and cultured in DMEM/F12 with 20% FBS (GemCell, 100-500) at 37° C., 5% CO2.
Differentiation of pre-adipocytes were based on previously published methods (Bunnell et al., 2008). Briefly, 3T3-L1 pre-adipocytes were grown to full confluence in DMEM, 10% FBS (GemCell, 100-500), 10 mM HEPES and antibiotic-antimycotic (full growth media). 2 days later, differentiation was induced by replacing the media with 1 μM dexamethasone, 1 μM rosiglitazone, 500 μM IBMX and 5 μg/ml insulin in full growth media 2 days later after reaching full confluence. Two days later media was replaced by differentiation induction media with 1 μM rosiglitazone and 5 μg/ml insulin for 4 days with media change after 2 days. Cells were kept in maintenance medium (full growth media with 5 μg/ml insulin) for 4 more days for full differentiation. […]
For in vitro lipolysis assay, cells were washed with PBS and media were changed to full growth media 1 day before experiment. […] FFAs were measured in the media using a commercial kit (Wako-NEFAHR2) and normalized to protein concentration. […] FFAs were measured and normalized by the explant weights.

3T3-L1 adipocytes = test: In vitro lipolysis assay (FFA release), 3T3-L1 adipocytes; assay type: cell-based
Method: Differentiation of pre-adipocytes were based on previously published methods (Bunnell et al., 2008). Briefly, 3T3-L1 pre-adipocytes were grown to full confluence in DMEM, 10% FBS (GemCell, 100-500), 10 mM HEPES and antibiotic-antimycotic (full growth media). 2 days later, differentiation was induced by replacing the media with 1 μM dexamethasone, 1 μM rosiglitazone, 500 μM IBMX and 5 μg/ml insulin in full growth media 2 days later after reaching full confluence. Two days later media was replaced by differentiation induction media with 1 μM rosiglitazone and 5 μg/ml insulin for 4 days with media change after 2 days. Cells were kept in maintenance medium (full growth media with 5 μg/ml insulin) for 4 more days for full differentiation. For differentiation of mouse SVF derived adipocytes, the protocol was same except DMEM/F12 (10565018, ThermoFisher) was used as base media and initial differentiation induction media was kept for 3 days. For differentiation of human subcutaneous adipocytes, protocol and media from the manufacturer (C-12735, C-39437, Promocell) were used. Dexamethasone was omitted from the media in the last 3 days before performing experiments. Both mouse and human SVF derived adipocytes were differentiated in collagen coated plates (A1142802, ThermoFisher).
For in vitro lipolysis assay, cells were washed with PBS and media were changed to full growth media 1 day before experiment. Cells were serum starved for 2 h and placed in KRBH buffer (30 mM HEPES, 120 mM NaCl, 4 mM KH2PO4, 1 mM MgSO4, 0.75 mM CaCl2), and 10 mM NaHCO3) with 2% fatty acid free BSA and 5 mM glucose. FGF1 was added 10 min before induction of lipolysis with 100 nM isoprotenol (ISO). Inhibitors were added 30 min prior to FGF1 treatment unless otherwise noted. Media were collected and cells were lysed in protein extraction buffer. FFAs were measured in the media using a commercial kit (Wako-NEFAHR2) and normalized to protein concentration. For ex vivo lipolysis, the assay was modified from a published protocol (Funicello et al., 2007). Briefly, approximately 0.1 gram of adipose tissue was excised, weighed and kept in cold PBS until treatment and control tissues were collected. Tissues were cut into small pieces and incubated in same KRBH buffer as described above for 4 h. FFAs were measured and normalized by the explant weights.

[4] = overnight fasted ob/ob mice, 2 h after FGF1 0.5 mg/kg

FGF1: Recombinant fibroblast growth factor 1 protein, dissolved in PBS, injected subcutaneously
pyruvate and glycerol tolerance tests ([1]; DIO mice, 2 h after FGF1 0.5 mg/kg): replicated in DIO mice
suppression of pyruvate utilization ([1]; adR1WT vs adR1KO DIO mice): dependent on adipocyte FGFR1 expression
glycerol tolerance test [1, 4]: no differences
pyruvate tolerance test (glucose synthesis from pyruvate) [1, 4]: markedly reduced ability to synthesize glucose from pyruvate
reduction in basal endogenous glucose production (EGP) [2]: ~25%
exogenous glucose infusion rate (GIR) ([2]; clamp conditions): higher
glucose disposal rate (GDR) ([2]; clamp conditions): not altered
anti-lipolytic activity of FGF1 with selective inhibitors of PDE4 ([3]; FGF1 100 ng/ml with roflumilast 2 μM): blocked by selective inhibitors of PDE4
basal and isoproterenol-induced lipolysis ([3]; FGF1 100 ng/ml, 10 min before ISO 1 nM): acutely suppressed basal and isoproterenol-induced lipolysis
isoproterenol-induced lipolysis in adipocytes derived from PDE4D KO SVF ([3]; FGF1 100 ng/ml, ISO 1 nM): insensitive to FGF1 treatment
FGF1 suppression of lipolysis under FGFR1 inhibition (3T3-L1 adipocytes; FGF1 100 ng/ml with FGFR1 inhibitor PD 173074 1 μM): blocked by FGFR1 inhibition
FGF1-induced suppression of lipolysis under PDE3B inhibition (3T3-L1 adipocytes; FGF1 100 ng/ml with PDE3 inhibitors (cilostamide or quazinone 10 μM)): did not impair
anti-lipolytic activity of FGF1 with selective inhibitors of PDE4 (3T3-L1 adipocytes; FGF1 100 ng/ml with roflumilast 2 μM or cilomulast 10 μM): blocked by selective inhibitors of PDE4
isoproterenol-induced lipolysis (3T3-L1 adipocytes; dose response of FGF1, ISO 100 nM, 4 h): dose-dependently suppressed isoproterenol-induced lipolysis
